Results taken from ChEMBL document CHEMBL1147514 (Bioorg Med Chem Lett, 2004).
“And” between values parts separate entries of the source, which are not always exact repeats. Equal entries are not always repeated.

Assays:
[1] = target: T1, Neuronal acetylcholine receptor; alpha4/beta2 (Rattus norvegicus, UniProt P09483+P12390); test: Binding affinity towards rat Nicotinic acetylcholine receptor alpha4-beta2 expressed in Xenopus oocytes using [3H]epibatidine as radioligand; format: cell-based, Oocyte
T1 sequence (P09483 whole entry): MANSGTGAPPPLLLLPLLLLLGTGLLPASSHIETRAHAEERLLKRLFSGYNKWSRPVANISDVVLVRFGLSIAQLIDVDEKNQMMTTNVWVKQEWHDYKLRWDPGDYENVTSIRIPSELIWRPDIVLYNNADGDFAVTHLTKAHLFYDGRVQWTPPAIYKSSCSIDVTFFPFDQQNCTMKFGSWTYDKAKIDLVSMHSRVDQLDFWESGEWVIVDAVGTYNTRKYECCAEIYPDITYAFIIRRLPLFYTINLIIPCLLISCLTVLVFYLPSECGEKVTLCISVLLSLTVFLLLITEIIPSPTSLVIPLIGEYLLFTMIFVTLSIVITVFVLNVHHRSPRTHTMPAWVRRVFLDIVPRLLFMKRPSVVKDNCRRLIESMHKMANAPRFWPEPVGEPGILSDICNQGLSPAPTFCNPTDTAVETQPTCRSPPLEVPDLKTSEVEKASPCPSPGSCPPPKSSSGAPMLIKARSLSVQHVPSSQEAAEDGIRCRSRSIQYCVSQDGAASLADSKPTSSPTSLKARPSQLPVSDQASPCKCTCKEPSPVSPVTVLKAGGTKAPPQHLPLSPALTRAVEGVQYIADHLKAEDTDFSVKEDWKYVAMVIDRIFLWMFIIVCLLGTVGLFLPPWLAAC
T1 sequence (P12390 whole entry): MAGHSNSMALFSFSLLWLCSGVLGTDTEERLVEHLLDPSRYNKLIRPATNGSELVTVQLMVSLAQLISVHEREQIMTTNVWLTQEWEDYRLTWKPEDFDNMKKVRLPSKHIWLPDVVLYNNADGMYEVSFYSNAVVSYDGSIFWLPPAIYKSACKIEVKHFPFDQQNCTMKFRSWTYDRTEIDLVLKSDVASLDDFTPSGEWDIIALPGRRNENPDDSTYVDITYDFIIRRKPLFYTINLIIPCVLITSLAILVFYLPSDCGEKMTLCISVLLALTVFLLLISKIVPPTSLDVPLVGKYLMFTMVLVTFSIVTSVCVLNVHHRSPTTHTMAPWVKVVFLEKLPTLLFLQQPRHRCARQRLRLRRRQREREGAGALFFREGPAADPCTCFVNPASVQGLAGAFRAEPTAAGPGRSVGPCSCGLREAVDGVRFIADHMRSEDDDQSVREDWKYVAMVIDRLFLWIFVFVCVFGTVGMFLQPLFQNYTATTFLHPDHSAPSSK

[2] = target: Neuronal acetylcholine receptor; alpha2/beta2 (Rattus norvegicus, UniProt P12389+P12390); test: Binding affinity towards rat alpha2-beta2 neuronal nAChR expressed in Xenopus oocytes using [3H]epibatidine as radioligand; format: cell-based, Oocyte
Chain of Neuronal acetylcholine receptor; alpha2/beta2 (P12389 whole entry): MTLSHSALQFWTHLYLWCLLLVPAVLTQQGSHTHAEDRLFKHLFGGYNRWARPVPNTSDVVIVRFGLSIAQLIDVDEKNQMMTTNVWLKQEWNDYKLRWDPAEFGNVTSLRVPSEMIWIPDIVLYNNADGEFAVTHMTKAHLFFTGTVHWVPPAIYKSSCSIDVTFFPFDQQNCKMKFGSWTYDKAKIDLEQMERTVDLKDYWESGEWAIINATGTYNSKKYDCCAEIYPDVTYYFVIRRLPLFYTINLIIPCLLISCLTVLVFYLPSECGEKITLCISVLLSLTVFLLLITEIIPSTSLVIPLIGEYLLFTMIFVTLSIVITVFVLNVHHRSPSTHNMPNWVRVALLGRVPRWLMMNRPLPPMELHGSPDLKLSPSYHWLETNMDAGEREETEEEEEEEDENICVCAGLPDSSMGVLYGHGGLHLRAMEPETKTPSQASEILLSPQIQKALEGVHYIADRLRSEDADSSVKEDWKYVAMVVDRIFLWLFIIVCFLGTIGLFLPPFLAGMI
Chain of Neuronal acetylcholine receptor; alpha2/beta2 (P12390 whole entry): as the sequence (P12390 whole entry) above

[3] = target: Neuronal acetylcholine receptor; alpha3/beta2 (Rattus norvegicus, UniProt P04757+P12390); test: Binding affinity towards rat Nicotinic acetylcholine receptor alpha3-beta2 expressed in Xenopus oocytes using [3H]epibatidine as radioligand; format: cell-based, Oocyte
Chain of Neuronal acetylcholine receptor; alpha3/beta2 (P04757 whole entry): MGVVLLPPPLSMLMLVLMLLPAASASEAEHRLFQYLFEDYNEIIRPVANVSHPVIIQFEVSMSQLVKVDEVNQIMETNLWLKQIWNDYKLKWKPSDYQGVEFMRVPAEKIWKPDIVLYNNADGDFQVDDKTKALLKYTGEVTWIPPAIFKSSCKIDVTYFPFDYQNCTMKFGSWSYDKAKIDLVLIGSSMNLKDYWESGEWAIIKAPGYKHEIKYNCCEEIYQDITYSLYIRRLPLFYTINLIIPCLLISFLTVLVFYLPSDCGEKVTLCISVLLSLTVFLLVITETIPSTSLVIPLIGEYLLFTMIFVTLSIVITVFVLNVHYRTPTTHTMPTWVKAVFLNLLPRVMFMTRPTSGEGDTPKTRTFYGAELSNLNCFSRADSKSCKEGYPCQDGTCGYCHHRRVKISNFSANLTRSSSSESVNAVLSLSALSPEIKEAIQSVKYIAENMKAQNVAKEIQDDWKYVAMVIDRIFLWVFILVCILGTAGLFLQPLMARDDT
Chain of Neuronal acetylcholine receptor; alpha3/beta2 (P12390 whole entry): as the sequence (P12390 whole entry) above

Mus musculus [4] = organism: Mus musculus; test: Antinociceptive activity was tested in the mouse tail-flick test; format: functional
[5] = target: Neuronal acetylcholine receptor; alpha4/beta4 (Rattus norvegicus) (UniProt P09483+P12392); test: Functional potency measured as maximum stimulation at rat Nicotinic acetylcholine receptor alpha4-beta4 expressed in Xenopus oocytes; format: cell-based; settings: Oocyte
[6] = target: Neuronal acetylcholine receptor; alpha4/beta2 (Rattus norvegicus) (UniProt P09483+P12390); test: Functional potency measured as maximum stimulation at rat Nicotinic acetylcholine receptor alpha4-beta2 expressed in Xenopus oocytes; format: cell-based; settings: Oocyte
[7] = target: Neuronal acetylcholine receptor; alpha3/beta4 (Rattus norvegicus) (UniProt P04757+P12392); test: Functional potency measured as maximum stimulation at rat Nicotinic acetylcholine receptor alpha3-beta4 expressed in Xenopus oocytes; format: cell-based; settings: Oocyte
Mus musculus [8] = organism: Mus musculus; test: animal or person
Mus musculus [9] = organism: Mus musculus; test: animal or person; settings: Tail
[10] = target: Neuronal acetylcholine receptor; alpha2/beta4 (Rattus norvegicus, UniProt P12389+P12392); test: Binding affinity towards rat Nicotinic acetylcholine receptor alpha2-beta4 expressed in Xenopus oocytes using [3H]epibatidine as radioligand; format: cell-based, Oocyte
Chain of Neuronal acetylcholine receptor; alpha2/beta4 (P12389 whole entry): as the sequence (P12389 whole entry) above
Chain of Neuronal acetylcholine receptor; alpha2/beta4 (P12392 whole entry): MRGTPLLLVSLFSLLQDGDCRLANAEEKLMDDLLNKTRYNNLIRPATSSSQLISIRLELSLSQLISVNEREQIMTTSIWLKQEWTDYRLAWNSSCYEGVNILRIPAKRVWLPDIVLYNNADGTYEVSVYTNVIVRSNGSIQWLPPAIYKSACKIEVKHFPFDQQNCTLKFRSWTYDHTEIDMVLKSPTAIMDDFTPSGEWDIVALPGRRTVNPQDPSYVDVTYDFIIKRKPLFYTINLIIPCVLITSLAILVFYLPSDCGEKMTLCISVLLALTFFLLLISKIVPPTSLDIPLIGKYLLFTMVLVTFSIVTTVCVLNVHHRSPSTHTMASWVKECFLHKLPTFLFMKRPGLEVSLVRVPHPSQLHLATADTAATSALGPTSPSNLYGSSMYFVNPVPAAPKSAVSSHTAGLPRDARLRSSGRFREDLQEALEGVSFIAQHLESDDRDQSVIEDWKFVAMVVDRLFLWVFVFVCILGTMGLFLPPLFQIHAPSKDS

[11] = target: T2, Neuronal acetylcholine receptor; alpha4/beta4 (Rattus norvegicus, UniProt P09483+P12392); test: Functional potency measured as stimulation at rat Nicotinic acetylcholine receptor alpha4-beta4 expressed in Xenopus oocytes; format: cell-based, Oocyte
T2 sequence (P09483 whole entry): as the sequence (P09483 whole entry) above
T2 sequence (P12392 whole entry): as the sequence (P12392 whole entry) above

[12] = target: T2, Neuronal acetylcholine receptor; alpha4/beta4; test: Binding affinity towards rat Nicotinic acetylcholine receptor alpha4-beta4 expressed in Xenopus oocytes using [3H]epibatidine as radioligand; format: cell-based, Oocyte
[13] = target: T3, Neuronal acetylcholine receptor; alpha3/beta4 (Rattus norvegicus, UniProt P04757+P12392); test: Functional potency measured as stimulation at rat Nicotinic acetylcholine receptor alpha3-beta4 expressed in Xenopus oocytes; format: cell-based, Oocyte
T3 sequence (P04757 whole entry): as the sequence (P04757 whole entry) above
T3 sequence (P12392 whole entry): as the sequence (P12392 whole entry) above

[14] = target: T3, Neuronal acetylcholine receptor; alpha3/beta4; test: Binding affinity towards rat Nicotinic acetylcholine receptor alpha3-beta4 expressed in Xenopus oocytes using [3H]epibatidine as radioligand; format: cell-based, Oocyte
[15] = target: T1, Neuronal acetylcholine receptor; alpha4/beta2; test: Functional potency measured as stimulation at rat Nicotinic acetylcholine receptor alpha4-beta2 expressed in Xenopus oocytes; format: cell-based, Oocyte
[16] = target: T1, Neuronal acetylcholine receptor; alpha4/beta2; test: inhibition of [3H]nicotine binding to alpha4-beta2 nACh receptor from rat membranes from ref 18
[17] = target: T1, Neuronal acetylcholine receptor; alpha4/beta2; test: Inhibition of [3H]nicotine binding to Nicotinic acetylcholine receptor alpha4-beta2 from rat membranes
Mus musculus [18] = organism: Mus musculus; test: Antinociceptive activity was tested in the mouse tail-flick test at 112 nM; format: functional
Mus musculus [19] = organism: Mus musculus; test: Blockage of Antinociceptive activity of nicotine was tested in the mouse hot plate test; format: functional
Mus musculus [20] = organism: Mus musculus; test: Blockage of Antinociceptive activity of nicotine was tested in the mouse tail flick test; format: functional
Mus musculus [21] = test: Antinociceptive activity was tested in the mouse hot plate test at 15 mg/kg; format: functional
Mus musculus [22] = test: Antinociceptive activity was tested in the mouse tail-flick test at 15 mg/kg; format: functional
[23] = target: T1, Neuronal acetylcholine receptor; alpha4/beta2; test: Inhibition of [3H]epibatidine binding to Nicotinic acetylcholine receptor alpha4-beta2 from rat membranes
Mus musculus [24] = test: Blockage of antinociceptive activity was tested in the mouse tail-flick test at 0.01 mg/kg; format: functional
Mus musculus [25] = organism: Mus musculus; test: Antinociceptive activity was tested in the mouse hot plate test; format: functional
Mus musculus [26] = test: Blockage of antinociceptive activity was tested in the mouse hot plate test at 0.01 mg/kg; format: functional
Mus musculus [27] = organism: Mus musculus; test: Blockage of antinociceptive activity of nicotine was tested in the mouse hot plate test; format: functional
[28] = target: Neuronal acetylcholine receptor subunit alpha-7 (Rattus norvegicus, UniProt Q05941); test: Inhibition of [125I]-iodo-MLA binding to Nicotinic acetylcholine receptor alpha-7 from rat brain membranes; format: cell membranes, Membrane
Chain of Neuronal acetylcholine receptor subunit alpha-7 (Q05941 whole entry): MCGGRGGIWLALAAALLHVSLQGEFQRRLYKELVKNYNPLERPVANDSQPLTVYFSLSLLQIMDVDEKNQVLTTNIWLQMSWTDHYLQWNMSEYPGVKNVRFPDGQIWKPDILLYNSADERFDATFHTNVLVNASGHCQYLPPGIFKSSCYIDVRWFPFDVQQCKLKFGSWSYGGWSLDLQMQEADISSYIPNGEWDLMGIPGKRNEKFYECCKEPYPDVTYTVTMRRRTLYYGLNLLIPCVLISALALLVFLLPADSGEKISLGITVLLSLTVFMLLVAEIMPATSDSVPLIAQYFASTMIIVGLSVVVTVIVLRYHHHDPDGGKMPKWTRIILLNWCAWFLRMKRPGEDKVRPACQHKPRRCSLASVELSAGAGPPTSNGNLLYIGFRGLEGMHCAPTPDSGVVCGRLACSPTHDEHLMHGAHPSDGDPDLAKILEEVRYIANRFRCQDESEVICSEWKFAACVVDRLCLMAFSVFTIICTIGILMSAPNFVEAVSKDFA

SMILES: O=S(=O)(OC(F)(F)F)c1ccc(C2CC3CCC2N3)cn1 (stereo not drawn)
- Ki [1]: ~100 nM
- Ki [2]: > 10 nM
- Ki [3]: ~100 nM

SMILES: Clc1ccc(C2CC3CCC2N3)cn1 (stereo not drawn) [EPIBATIDINE]
- ED50 (Mus musculus [4]): > 1000 µg/kg
- Max [5]: 71%
- Max [6]: 58%
- Max [7]: 39%
- ED50 (Mus musculus [8]): 4 µg/kg
- ED50 (Mus musculus [9]): 6 µg/kg

SMILES: Fc1ccc(C2CC3CCC2N3)cn1 (stereo not drawn)
- Ki [1]: 0.0092 nM
- Ki [2]: 0.0024 nM
- Ki [10]: 1.2 nM
- EC50 [11]: 239 nM
- Ki [12]: 0.48 nM
- Max [5]: 131%
- Max [6]: 41%
- Ki [3]: 0.0038 nM
- EC50 [13]: 319 nM
- Ki [14]: 2.1 nM
- Max [7]: 40%
- EC50 [15]: 254 nM
- Ki [16]: 0.037 nM

SMILES: CN1[C@H]2CC[C@@H]1[C@@H](c1ccc(Cl)nc1)C2
- ED50 (Mus musculus [4]): 9 µg/kg
- Ki [17]: 0.11 nM

SMILES: Nc1ccc(C2CC3CCC2N3)cn1 (stereo not drawn)
- Activity (Mus musculus [18]): 57%
- Ki [1]: 0.35 nM
- Ki [2]: 0.062 nM
- Ki [10]: 3.5 nM
- EC50 [11]: 1840 nM
- Ki [12]: 4.3 nM
- Max [5]: 41%
- Max [6]: 29%
- Ki [3]: 0.077 nM
- EC50 [13]: 3240 nM
- Ki [14]: 7.2 nM
- Max [7]: 82%
- EC50 [15]: 7600 nM

SMILES: Fc1ncc(C2CC3CCC2N3)cc1-c1ccccc1 (racemic)
- AD50 (Mus musculus [19]): 1200 µg/kg
- AD50 (Mus musculus [20]): 500 µg/kg
- inhibition in vivo at 15 mg/kg (Mus musculus [21]): 4%
- inhibition in vivo at 15 mg/kg (Mus musculus [22]): 3%
- Ki [23]: 0.24 nM

SMILES: O=c1ccc(C2CC3CCC2N3)c[nH]1 (stereo not drawn)
- Ki [1]: ~100 nM
- Ki [2]: > 100 nM
- Ki [3]: > 100 nM

SMILES: Clc1ncc(C2CC3CCC2N3)cc1I (stereo not drawn)
- Activity (Mus musculus [24]): 4%
- ED50 (Mus musculus [25]): 140 µg/kg
- ED50 (Mus musculus [4]): 240 µg/kg
- Ki [23]: 0.008 nM
- Activity (Mus musculus [26]): 0%

SMILES: Fc1ncc([C@@H]2C[C@H]3CC[C@@H]2N3)cc1-c1ccccc1
- AD50 (Mus musculus [19]): 2400 µg/kg
- AD50 (Mus musculus [20]): 1000 µg/kg
- inhibition in vivo at 15 mg/kg (Mus musculus [21]): 8%
- inhibition in vivo at 15 mg/kg (Mus musculus [22]): 7%
- Ki [23]: 0.24 nM

SMILES: Cc1ccc(C2CC3CCC2N3)cn1 (stereo not drawn)
- Ki [17]: 0.13 nM

SMILES: Nc1cc(C2CC3CCC2N3)cnc1Cl (stereo not drawn)
- AD50 (Mus musculus [27]): 0.03 µg/kg and 0.06 µg/kg
- ED50 (Mus musculus [25]): 20 µg/kg
- ED50 (Mus musculus [4]): 20 µg/kg
- Ki [23]: 0.01 nM
- Ki [28]: 13.9 nM

SMILES: Clc1ncc(C2CC3CCC2N3)cc1-c1ccccc1 (stereo not drawn)
- ED50 (Mus musculus [25]): 1000 µg/kg
- ED50 (Mus musculus [4]): 700 µg/kg

SMILES: Clc1cc(C2CC3CCC2N3)cnc1Cl (stereo not drawn)
- ED50 (Mus musculus [25]): 30 µg/kg
- ED50 (Mus musculus [4]): 50 µg/kg
- Ki [23]: 0.014 nM
- Ki [28]: 1.12 nM

SMILES: Ic1ccc(C2CC3CCC2N3)cn1 (stereo not drawn)
- Ki [23]: 0.09 nM
